Experimental data: US20240285670A1, “THERAPEUTIC TREATMENT OF TUMORS BY BLOCKING THE HEME SYNTHESIS-EXPORT AXIS” (Università degli Studi di Torino, priority 2021, published 2024)

Assays:
SH-SY5Y cells = test: Mitochondrial ATP levels in SHSY-5Y cells; type: cell-based, human; conditions: FLVCR1a-silenced vs scramble shRNA SH-SY5Y cells
Source text: Results were expressed as nmol NAD*/min/mg mitochondrial protein for complex I, nmol reduced cytochrome c/min/mg mitochondrial protein for complexes II-III, nmol oxidized cytochrome c/min/mg mitochondrial protein for complex IV. Data represent mean±SEM, n=3. For statistical analyses, an unpaired Student's t-test was used; *=p<0.05, **=p<0.01, *=p<0.001. […] Results are expressed as nmol/mg mitochondrial proteins. Data represent mean±SEM, n=3. For statistical analyses, an unpaired Student's t-test was used; *=p<0.05. […] Results are expressed as pmol CO2/h/mg protein. Data represent mean±SEM, n=3. For statistical analyses, an unpaired Student's t-test was used; **=p<0.01. […] Results were expressed as nmol NAD*/min/mg mitochondrial protein for complex I, nmol reduced cytochrome c/min/mg mitochondrial protein for complexes II-III, nmol oxidized cytochrome c/min/mg mitochondrial protein for complex IV. […] Results are expressed as nmol/mg mitochondrial proteins. […] Results are expressed as pmol CO2/h/mg protein. […] (H) TCA cycle enzymes activities are reported in boxes and expressed as mU/mg mitochondrial proteins. […] Results were expressed as nmol NAD^+/min/mg mitochondrial protein for complex I, nmol reduced cytochrome c/min/mg mitochondrial protein for complexes II-III, nmol oxidized cytochrome c/min/mg mitochondrial protein for complex IV. […] Results are expressed as nmol/mg mitochondrial proteins. […]

SKCO1 cells = test: SKCO1 xenograft tumor model in NSG mice; type: in vivo
Source text: (A) Proliferation of Caco2 cells assessed by crystal violet staining at the indicated days; bar=1000 μm. […] Staining quantification is reported in the bar graph as percentage of crystal violet stained area. Data represent mean±SEM, n=4. For statistical analyses, a two-way analysis of variance was used, followed by the Bonferroni correction for multiple group comparisons; *=p<0.05, ***=p<0.001. (B) Caco2 cells viability the day of plating (day 0) and three days after plaiting (day 3). The measure is considered a readout of cell proliferation. […] Data represent mean±SEM, n=3 wells. For statistical analyses, a two-way analysis of variance was used, followed by the Bonferroni correction for multiple group comparisons; *=p<0.05, **=p<0.01. (C, D, E) Representative flow cytometric analyses of apoptosis in synchronized Caco2 (C), SKCO1 (D) and C80 (E) cells. […] Data represent mean±SEM, n=4 wells pooled from two independent experiments. […]
For the SKCO1 xenograft model, 8-week-old NOD SCID gamma (NSG) male mice (The Jackson Laboratory, Bar Harbor, ME USA; NOD.Cg-Prkdc^scid Il2rg^tm1Wjl/SzJ, catalog n° 005557, RRID: IMSR_JAX:005557) were housed in a temperature-controlled, pathogen-free environment and used for experimentation. […] Tumor length (L) and width (W) were measured and tumor volume (mm^3) was calculated using the following formula: (L×W^2)/2. […]

For “FLVCR1a shRNA: shRNA specifically down-regulating FLVCR1a without targeting FLVCR1b; pLKO.1 lentiviral clone TRCN0000059599, antisense SEQ ID No.: 2 (antisense TTGCTAATGATGCTGTACTGG; sense CCAGTACAGCATCATTAGCAA)”, the “mitochondrial ATP levels” value (SH-SY5Y cells) was “increased mitochondrial ATP levels”, the “tumor size (tumor volume)” value (SKCO1 cells; subcutaneous injection of FLVCR1a-silenced vs scramble SKCO1 cells in NSG mice, 11 weeks) was “smaller tumors” and the “tumor histology (hematoxylin and eosin)” value (SKCO1 cells; tumors from FLVCR1a-silenced vs control SKCO1 cells in NSG mice) was “higher amount of stroma (mostly fibrous tissue) and, in general, lower cellularity”.
